Reference: patent publication US20160106102A1, “KNOWN AND NEW HETEROCYCLIC COMPOUNDS AS PEST CONTROL AGENTS” (BAYER CROPSCIENCE AKTIENGESELLSCHAFT, priority 2013, published 2016)

system: Myzus persicae; experiment: Myzus persicae - spray test; type: in vivo; details: application rate of 500 g/ha; after 6 days; sprayed Chinese cabbage leaf discs infested by all stages; 100% = all aphids killed
How it was run: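 Chinese cabbage leaf discs infested with all stages of green peach aphid sprayed with compound in acetone/DMF formulation with alkylaryl polyglycol ether emulsifier, diluted in emulsifier-containing water. Efficacy (% aphids killed) assessed after 6 days.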

In order of falling efficacy in %:
1. COCCn1nc(NC(=O)c2cccnc2)cc1C [Compound I-1-173]  100%
2. Cc1cc(NC(=O)c2cccnc2)nn1CCCl [Compound I-1-33]  100%
3. CC[S+]([O-])CCn1nc(NC(=O)c2cccnc2)cc1C (stereo not shown) [Compound I-1-190]  100%
4. Cc1cc(NC(=S)c2cccnc2)nn1Cc1ncccn1 [Compound I-1-344]  100%
5. CCOCn1nc(NC(=O)c2cccnc2)cc1C [Compound I-1-2]  100%
6. Cc1cc(NC(=O)c2cccnc2)nn1Cn1cncn1 [Compound I-1-224]  100%
7. Cc1cc(NC(=O)c2cccnc2)nn1C(=O)NCC(C)(C)C [Compound I-1-321]  100%
8. CCS(=O)(=O)N(C)C(=O)n1nc(NC(=O)c2cccnc2)cc1C [Compound I-1-289]  90%
9. CSCCNC(=O)n1nc(NC(=O)c2cccnc2)cc1C [Compound I-1-167]  90%
10. CSCCn1nc(N(C)C(=O)c2cccnc2)cc1C [Compound I-1-187]  90%
11. CCOC(CNC(=O)n1nc(NC(=O)c2cccnc2)cc1C)OCC [Compound I-1-170]  90%
12. COC(=O)C(C)(C)NC(=O)Cn1nc(NC(=O)c2cccnc2)cc1C [Compound I-1-32]  90%
13. CCc1nn2c(=O)cc(Cn3nc(NC(=O)c4cccnc4)cc3C)nc2s1 [Compound I-1-352]  90%
14. Cc1cc(N(C(=O)c2ccc(Cl)cc2)C(=O)c2cccnc2)nn1C(=O)c1ccc(Cl)cc1 [Compound I-1-42]  90%
15. Cc1cc(NC(=O)c2cccnc2)nn1Cc1cc(C(=O)O)n(-c2ncccc2Cl)n1 [Compound I-1-156]  90%
16. COC(=O)n1nc(NC(=O)c2cccnc2)cc1C [Compound I-1-126]  90%
17. CNC(=O)Cn1nc(NC(=O)c2cccnc2)cc1C [Compound I-1-124]  90%

system: Myzus persicae; experiment: Myzus persicae - sachet test; type: in vivo; details: application rate of 6 ppm in nutrient medium; 100% = all animals killed
How it was run: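 Green peach aphids feed through a sealed sachet on nutrient medium containing the water-diluted formulation (solvents: 2% N-methylpyrrolidone, 2% diacetone alcohol). Percent mortality read after the chosen time; 100% means all animals killed.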

In order of falling “efficacy (kill in %)” value:
1. CCS(=O)(=O)N(C)C(=O)n1nc(NC(=O)c2cccnc2)cc1C [Compound I-1-289]  100%
2. CSCCNC(=O)n1nc(NC(=O)c2cccnc2)cc1C [Compound I-1-167]  100%
3. CSCCn1nc(N(C)C(=O)c2cccnc2)cc1C [Compound I-1-187]  100%
4. Cc1cc(NC(=O)c2cccnc2)nn1CCCl [Compound I-1-33]  100%
5. CCOC(CNC(=O)n1nc(NC(=O)c2cccnc2)cc1C)OCC [Compound I-1-170]  100%
6. CC[S+]([O-])CCn1nc(NC(=O)c2cccnc2)cc1C (stereo not shown) [Compound I-1-190]  100%
7. Cc1cc(NC(=S)c2cccnc2)nn1Cc1ncccn1 [Compound I-1-344]  100%
8. COC(=O)C(C)(C)NC(=O)Cn1nc(NC(=O)c2cccnc2)cc1C [Compound I-1-32]  100%
9. CCOCn1nc(NC(=O)c2cccnc2)cc1C [Compound I-1-2]  100%
10. Cc1cc(NC(=O)c2cccnc2)nn1Cn1cncn1 [Compound I-1-224]  100%
11. Cc1cc(NC(=O)c2cccnc2)nn1C(=O)NCC(C)(C)C [Compound I-1-321]  100%
12. Cc1cc(NC(=O)c2cccnc2)nn1Cc1cc(C(=O)O)n(-c2ncccc2Cl)n1 [Compound I-1-156]  100%
13. COC(=O)n1nc(NC(=O)c2cccnc2)cc1C [Compound I-1-126]  100%
14. CNC(=O)Cn1nc(NC(=O)c2cccnc2)cc1C [Compound I-1-124]  100%
15. COCCn1nc(NC(=O)c2cccnc2)cc1C [Compound I-1-173]  80%
16. Cc1cc(N(C(=O)c2ccc(Cl)cc2)C(=O)c2cccnc2)nn1C(=O)c1ccc(Cl)cc1 [Compound I-1-42]  80%

same assay, conditions: application rate of 30 ppm in nutrient medium; 100% = all animals killed

In order of falling “efficacy (kill in %)” value:
1. CCS(=O)(=O)N(C)C(=O)n1nc(NC(=O)c2cccnc2)cc1C [Compound I-1-289]  100%
2. CSCCNC(=O)n1nc(NC(=O)c2cccnc2)cc1C [Compound I-1-167]  100%
3. CSCCn1nc(N(C)C(=O)c2cccnc2)cc1C [Compound I-1-187]  100%
4. Cc1cc(NC(=O)c2cccnc2)nn1CCCl [Compound I-1-33]  100%
5. CCOC(CNC(=O)n1nc(NC(=O)c2cccnc2)cc1C)OCC [Compound I-1-170]  100%
6. CC[S+]([O-])CCn1nc(NC(=O)c2cccnc2)cc1C (stereo not shown) [Compound I-1-190]  100%
7. Cc1cc(NC(=S)c2cccnc2)nn1Cc1ncccn1 [Compound I-1-344]  100%
8. COC(=O)C(C)(C)NC(=O)Cn1nc(NC(=O)c2cccnc2)cc1C [Compound I-1-32]  100%
9. CCOCn1nc(NC(=O)c2cccnc2)cc1C [Compound I-1-2]  100%
10. Cc1cc(NC(=O)c2cccnc2)nn1Cn1cncn1 [Compound I-1-224]  100%
11. CCc1nn2c(=O)cc(Cn3nc(NC(=O)c4cccnc4)cc3C)nc2s1 [Compound I-1-352]  100%
12. Cc1cc(NC(=O)c2cccnc2)nn1C(=O)NCC(C)(C)C [Compound I-1-321]  100%
13. Cc1cc(N(C(=O)c2ccc(Cl)cc2)C(=O)c2cccnc2)nn1C(=O)c1ccc(Cl)cc1 [Compound I-1-42]  100%
14. Cc1cc(NC(=O)c2cccnc2)nn1Cc1cc(C(=O)O)n(-c2ncccc2Cl)n1 [Compound I-1-156]  100%
15. COC(=O)n1nc(NC(=O)c2cccnc2)cc1C [Compound I-1-126]  100%
16. CNC(=O)Cn1nc(NC(=O)c2cccnc2)cc1C [Compound I-1-124]  100%
17. COCCn1nc(NC(=O)c2cccnc2)cc1C [Compound I-1-173]  80%

system: not listed separately; experiment: log P determination by LC-MS in the acidic range; type: physicochemical; details: LC-MS in the acidic range
Source text: The LC-MS determination in the acidic range is effected at pH 2.7 using 0.1% aqueous formic acid and acetonitrile (contains 0.1% formic acid) as eluents, linear gradient from 10% acetonitrile to 95% acetonitrile. Alternatively, the determination is effected in the acidic range at pH 2.3 using 0.1% aqueous phosphoric acid and acetonitrile as eluents; linear gradient from 10% acetonitrile to 95% acetonitrile.

In order of rising “log P (acid)” value:
1. CNC(=O)Cn1nc(NC(=O)c2cccnc2)cc1C [Compound I-1-124]  0.29
2. CC[S+]([O-])CCn1nc(NC(=O)c2cccnc2)cc1C (stereo not shown) [Compound I-1-190]  0.46
3. Cc1cc(NC(=O)c2cccnc2)nn1Cn1cncn1 [Compound I-1-224]  0.58
4. COC(=O)C(C)(C)NC(=O)Cn1nc(NC(=O)c2cccnc2)cc1C [Compound I-1-32]  0.72
5. COCCn1nc(NC(=O)c2cccnc2)cc1C [Compound I-1-173]  0.79
6. COC(=O)n1nc(NC(=O)c2cccnc2)cc1C [Compound I-1-126]  1.08
7. CCOCn1nc(NC(=O)c2cccnc2)cc1C [Compound I-1-2]  1.1
8. Cc1cc(NC(=O)c2cccnc2)nn1CCCl [Compound I-1-33]  1.16
9. CSCCn1nc(N(C)C(=O)c2cccnc2)cc1C [Compound I-1-187]  1.17
10. Cc1cc(NC(=O)c2cccnc2)nn1Cc1cc(C(=O)O)n(-c2ncccc2Cl)n1 [Compound I-1-156]  1.18
11. CCc1nn2c(=O)cc(Cn3nc(NC(=O)c4cccnc4)cc3C)nc2s1 [Compound I-1-352]  1.23
12. Cc1cc(NC(=S)c2cccnc2)nn1Cc1ncccn1 [Compound I-1-344]  1.24
13. CCS(=O)(=O)N(C)C(=O)n1nc(NC(=O)c2cccnc2)cc1C [Compound I-1-289]  1.5
14. CSCCNC(=O)n1nc(NC(=O)c2cccnc2)cc1C [Compound I-1-167]  1.55
15. CCOC(CNC(=O)n1nc(NC(=O)c2cccnc2)cc1C)OCC [Compound I-1-170]  1.88
16. Cc1cc(NC(=O)c2cccnc2)nn1C(=O)NCC(C)(C)C [Compound I-1-321]  2.19
17. Cc1cc(N(C(=O)c2ccc(Cl)cc2)C(=O)c2cccnc2)nn1C(=O)c1ccc(Cl)cc1 [Compound I-1-42]  4.18
